Results from ChEMBL document CHEMBL1201862, “PubChem BioAssay data set” (2004).
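Protocol summary: plate cells (96-well), add compound at 5 concentrations, incubate 48 h, interpolate endpoints linearly. GI50 is the concentration that inhibits growth by half.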 Calls of active or inactive are those of the source. Rule as the data show it: active = GI50 up to about 1.1 µM and inactive = higher.

Legend:
Test in all cases: NCI anticancer screen, dose series, 48 h
SK-MEL-5 = tested on: SK-MEL-5
NCI/ADR-RES = tested on: NCI/ADR-RES
SF-295 = tested on: SF-295
OVCAR-5 = tested on: OVCAR-5
PC-3 = tested on: PC-3
CAKI-1 = tested on: CAKI-1
MDA-MB-435 = tested on: MDA-MB-435
OVCAR-8 = tested on: OVCAR-8
A498 = tested on: A498
MDA-N = tested on: MDA-N
CCRF-CEM = tested on: CCRF-CEM
DMS-114 = tested on: DMS-114
DMS-273 = tested on: DMS-273
DLD-1 = tested on: DLD-1
U-251 = tested on: U-251
MDA-MB-231 = tested on: MDA-MB-231
LXFL 529 = tested on: LXFL 529
Hs-578T = tested on: Hs-578T
DU-145 = tested on: DU-145
LOX IMVI = tested on: LOX IMVI

## Cc1c(N)nc(C2CC(=O)N2CC(N)C(N)=O)nc1C(=O)NC(C(=O)NC(C)C(O)C(C)C(=O)NC(C(=O)NCCc1nc(-c2nc(C(=O)NCCNCC(C)O)cs2)cs1)C(C)O)C(OC1OC(CO)C(O)C(O)C1OC1OC(CO)C(O)C(OC(N)=O)C1O)c1c[nH]cn1 (centres undefined)
SK-MEL-5
  GI50: 809 nM (active)
NCI/ADR-RES
  GI50: 31000 nM (inactive)
SF-295
  GI50: 167 nM (active)
OVCAR-5
  GI50: 2670 nM (inactive)
PC-3
  GI50: > 50000 nM (inactive)
CAKI-1
  GI50: < 42.6 nM (active)
MDA-MB-435
  GI50: 3100 nM (inactive)
OVCAR-8
  GI50: 3360 nM (inactive)
A498
  GI50: 5350 nM (inactive)
MDA-N
  GI50: > 50000 nM (inactive)
CCRF-CEM
  GI50: 7740 nM (inactive)
DMS-114
  GI50: 397 nM (active)
DMS-273
  GI50: 129 nM (active)
DLD-1
  GI50: 32400 nM (inactive)
U-251
  GI50: 1830 nM (inactive)
MDA-MB-231
  GI50: > 50000 nM (inactive)
LXFL 529
  GI50: > 38000 nM (inactive)
Hs-578T
  GI50: 2300 nM (inactive)
DU-145
  GI50: 7870 nM (inactive)
LOX IMVI
  GI50: 184 nM (active)

## CCSC(=O)N1c2ccc(OC)cc2C=CC1C#N (centres undefined)
SK-MEL-5
  GI50: 1.52 nM (active)
NCI/ADR-RES
  GI50: 1.31 nM (active)
SF-295
  GI50: 4.05 nM (active)
OVCAR-5
  GI50: < 9.93 nM (active)
PC-3
  GI50: 3.64 nM (active)
CAKI-1
  GI50: < 10 nM (active)
MDA-MB-435
  GI50: 2.92 nM (active)
OVCAR-8
  GI50: 5.69 nM (active)
A498
  GI50: < 10 nM (active)
MDA-N
  GI50: 3.06 nM (active)
CCRF-CEM
  GI50: 3.13 nM (active)
DMS-114
  GI50: < 10 nM (active)
DMS-273
  GI50: < 10 nM (active)
DLD-1
  GI50: < 10 nM (active)
U-251
  GI50: 4.03 nM (active)
MDA-MB-231
  GI50: 5.89 nM (active)
LXFL 529
  GI50: < 10 nM (active)
Hs-578T
  GI50: 360 nM (active)
DU-145
  GI50: 1.68 nM (active)
LOX IMVI
  GI50: 4.24 nM (active)

## Nc1ccc(Cn2ccc3c4c(N)nc(N)nc4ccc32)cc1
SK-MEL-5
  GI50: < 10 nM (active)
NCI/ADR-RES
  GI50: 242 nM (active)
SF-295
  GI50: < 10 nM (active)
OVCAR-5
  GI50: 22.4 nM (active)
PC-3
  GI50: 12.7 nM (active)
CAKI-1
  GI50: 11.9 nM (active)
MDA-MB-435
  GI50: < 10 nM (active)
OVCAR-8
  GI50: < 12.7 nM (active)
MDA-N
  GI50: < 10 nM (active)
CCRF-CEM
  GI50: < 10 nM (active)
DMS-114
  GI50: < 10 nM (active)
DMS-273
  GI50: < 10 nM (active)
DLD-1
  GI50: < 10 nM (active)
U-251
  GI50: < 10 nM (active)
MDA-MB-231
  GI50: 1060 nM (active)
LXFL 529
  GI50: 11.9 nM (active)
Hs-578T
  GI50: 2280 nM (inactive)
DU-145
  GI50: 12.3 nM (active)
LOX IMVI
  GI50: < 10 nM (active)
